Patent US11219621B2, “Methods for treating immunodeficiency disease” (X4 Pharmaceuticals, Inc., priority 2015, dated 2022)

Tests used:
[1] = tested on: white blood cells (WBC), neutrophils, lymphocytes; test: Hematologic effects of a single oral dose in the male Beagle dog; type: in vivo
Description: Three fasted male Beagle dogs received a single dose of […]-001 in aqueous solution by oral gavage at dose levels of 5, 15, and 35 mg/kg (1 dog per dose level) in a volume of 1 mL/kg. Blood samples (approximately 3 mL each) were obtained at multiple timepoints from each animal by direct venipuncture of the jugular vein and collected using Vacutainer® tubes containing K3EDTA as the anticoagulant. […] Blood samples were stored at ambient room temperature prior to automated differential analysis Body weights were determined prior to dosing on the day of test article administration. […] Hematology parameters included the following: White Blood Cell Count (WBC) Differential white blood cell count (absolute and relative) • Neutrophil • Lymphocytes • Monocytes • Eosinophils • Basophils • Large Unstained Cells (LUC) • Hematocrit (HCT) • Hemoglobin (HGB) • Mean Corpuscular Hemoglobin (MCH) • Mean Corpuscular Hemoglobin Concentration (MCHC) • Mean Corpuscular Volume (MCV) • Platelet Count (PLT) • Red Blood Cell Count (RBC) Results

[2] = biological target: CXCR4 (Homo sapiens, UniProt P61073); settings: SDF-1α dose/response in calcium flux assay with increasing amounts of X4P-001; cited from earlier work
Chain of CXCR4 (P61073 whole entry): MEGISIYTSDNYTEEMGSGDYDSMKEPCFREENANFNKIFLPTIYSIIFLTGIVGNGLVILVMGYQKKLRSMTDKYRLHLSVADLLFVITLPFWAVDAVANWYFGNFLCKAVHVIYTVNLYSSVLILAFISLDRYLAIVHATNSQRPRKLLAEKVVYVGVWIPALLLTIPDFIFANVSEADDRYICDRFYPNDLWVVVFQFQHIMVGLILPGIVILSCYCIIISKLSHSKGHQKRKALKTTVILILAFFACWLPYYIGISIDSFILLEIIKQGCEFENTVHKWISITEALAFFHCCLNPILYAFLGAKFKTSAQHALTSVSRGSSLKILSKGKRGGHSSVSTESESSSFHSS

[3] = human, in vivo
[4] = biological target: T1, CCR2b (Homo sapiens, UniProt P41597); settings: cited from earlier work
T1 construct: expressed in transfected cells
T1 sequence (P41597 1-360 isoform P41597-2): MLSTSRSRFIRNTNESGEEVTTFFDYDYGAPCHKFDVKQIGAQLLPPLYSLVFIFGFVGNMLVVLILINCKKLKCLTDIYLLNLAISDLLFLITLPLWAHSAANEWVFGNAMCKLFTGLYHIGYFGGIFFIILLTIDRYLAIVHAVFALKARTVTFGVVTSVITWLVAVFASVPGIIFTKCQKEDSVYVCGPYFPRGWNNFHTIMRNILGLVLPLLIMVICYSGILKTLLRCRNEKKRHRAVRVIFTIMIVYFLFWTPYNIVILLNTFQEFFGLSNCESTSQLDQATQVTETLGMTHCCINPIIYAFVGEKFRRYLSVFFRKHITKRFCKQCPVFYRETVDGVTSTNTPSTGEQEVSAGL

[5] = biological target: T2, CXCR3 (Homo sapiens, UniProt P49682); settings: cited from earlier work
T2 construct: expressed in transfected cells
T2 sequence (P49682 1-368): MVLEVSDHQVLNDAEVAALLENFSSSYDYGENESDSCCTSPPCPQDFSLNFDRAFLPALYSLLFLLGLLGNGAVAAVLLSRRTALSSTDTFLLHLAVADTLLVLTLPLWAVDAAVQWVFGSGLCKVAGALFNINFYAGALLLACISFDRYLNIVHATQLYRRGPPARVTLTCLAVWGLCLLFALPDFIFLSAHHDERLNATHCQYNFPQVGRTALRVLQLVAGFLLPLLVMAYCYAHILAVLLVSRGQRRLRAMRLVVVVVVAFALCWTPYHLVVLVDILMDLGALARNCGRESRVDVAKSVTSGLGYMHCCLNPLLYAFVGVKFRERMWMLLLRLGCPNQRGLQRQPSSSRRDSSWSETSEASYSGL

[6] = biological target: T3, CCR7 (Homo sapiens, UniProt P32248); settings: cited from earlier work
T3 construct: endogenous in cells
T3 sequence (P32248 25-378): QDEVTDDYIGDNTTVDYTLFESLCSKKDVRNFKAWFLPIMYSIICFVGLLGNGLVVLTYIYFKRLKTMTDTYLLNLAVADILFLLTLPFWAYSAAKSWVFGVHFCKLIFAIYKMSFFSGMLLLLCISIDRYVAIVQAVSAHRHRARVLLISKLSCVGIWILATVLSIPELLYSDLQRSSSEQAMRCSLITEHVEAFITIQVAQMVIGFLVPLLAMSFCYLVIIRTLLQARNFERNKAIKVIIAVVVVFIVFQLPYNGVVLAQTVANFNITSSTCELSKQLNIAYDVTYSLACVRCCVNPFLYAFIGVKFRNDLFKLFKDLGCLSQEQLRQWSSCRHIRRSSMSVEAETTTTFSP

[7] = 28-Day GLP oral (capsule) toxicity study in the Beagle dog with 14-day recovery; type: in vivo
Description: A 28-Day GLP oral (capsule) toxicology study was conducted with […]-001 in the male and female beagle dog, and hematology effects were observed, with […]-001 administered twice-daily (at least 7 hours apart) by oral capsule for 28 days. A subset of treated animals was evaluated after a 14-day recovery period. [table] [table]

[8] = single oral dose 5, 15, 35 mg/kg
[9] = F, 10 mg/kg/d, termination, †p < 0.05
[10] = F, 30 mg/kg/d, termination, †p < 0.05
[11] = F, 100 mg/kg/d, termination, †p < 0.05
[12] = M, 100 mg/kg/d, termination, †p < 0.05

Other hematological effects [1, 8]: No other hematological effects
Volume of distribution (VL) [3]: high
SMILES: NCCCCN(Cc1nc2ccccc2[nH]1)[C@H]1CCCc2cccnc21 [X4P-001]
Peak elevations of WBC above baseline ([1]; 5 mg/kg dose level): 1.5 fold
Total circulating WBC, neutrophils, and lymphocytes, increase ([1]; 5 mg/kg, all three cell counts): 1.47 × baseline
Lymphocytes, increase ([1]; 15 mg/kg): 2.9 ×
Neutrophils, increase ([1]; 15 mg/kg): 1.8 ×
Lymphocytes, increase ([1]; 35 mg/kg): 1.9 ×
Neutrophils, increase ([1]; 35 mg/kg): 2.7 ×
Time at which increases were consistently apparent ([1]; 5, 15, and 35 mg/kg): 4 h
Time of peak of increases ([1]; 5, 15, and 35 mg/kg, typically, occasionally earlier): ~12 h
Peak elevations of WBC above baseline ([1]; 15 and 35 mg/kg dose levels): 1.8-2.9 fold
WBC, neutrophil, and lymphocyte counts at 24 hours ([1]; 15 and 35 mg/kg, with evidence of return to baseline): remained elevated
Time of maximal increases in WBC [1, 8]: 4-12 hours post-dose
Mode of inhibition of CXCR4 [2]: allosteric inhibitor
IC50 ([4]; CCR2b, HEK293F-CCR2b, MCP-1/CCL2, read-out: IC50 AMD11070): > 50 µM
Inhibitory effect on MCP-1 mediated calcium flux (CCR2b) [4]: little or no inhibitory effect
IC50 ([5]; CXCR3, HEK293F-CXCR3-Gαq15, IP-10/CXCL10, read-out: IC50 AMD11070): > 50 µM
Inhibitory effect on IP10 mediated calcium flux (CXCR3) [5]: little or no inhibitory effect
IC50 ([6]; CCR7, CCRF-CEM, MIP-3β/CCL19, read-out: IC50 AMD11070): > 50 µM
Inhibitory effect on MIP-3β mediated calcium flux (CCR7) [6]: little or no inhibitory effect
Coagulation ([7]; 10 mg/kg/d, termination): No changes
reticulocytes ([7]; 10 mg/kg/d, termination): No changes
Coagulation ([7]; 30 mg/kg/d, termination): No changes
reticulocytes ([7]; 30 mg/kg/d, termination): No changes
Coagulation ([7]; 100 mg/kg/d, termination): No changes
lymphocytes (abs), incr ([7]; F, 10 mg/kg/d, termination): F incr 1.4x
monocytes (abs), incr [7, 9]: F incr 1.6x†
neutrophils (abs), incr [7, 9]: F incr 1.9x†
lymphocytes (abs), incr [7, 10]: F incr 1.6x†
monocytes (abs), incr [7, 10]: F incr 1.9x†
neutrophils (abs), incr [7, 10]: F incr 2.3x†
lymphocytes (abs), incr [7, 11]: F incr 1.4x†
monocytes (abs), incr [7, 11]: F incr 2.4x†
neutrophils (abs), incr [7, 11]: F incr 2.8x†
reticulocytes, decr [7, 11]: F decr 0.24x†
lymphocytes (abs), incr ([7]; M, 10 mg/kg/d, termination): M incr 1.3x;
monocytes (abs), incr ([7]; M, 10 mg/kg/d, termination): M incr 1.2x;
neutrophils (abs), incr ([7]; M, 10 mg/kg/d, termination): M incr 1.2x;
lymphocytes (abs), incr ([7]; M, 30 mg/kg/d, termination): M incr 1.6x;
monocytes (abs), incr ([7]; M, 30 mg/kg/d, termination): M incr 1.3x;
neutrophils (abs), incr ([7]; M, 30 mg/kg/d, termination): M incr 1.2x;
neutrophils (abs), incr ([7]; M, 100 mg/kg/d, termination): M incr 1.8x;
lymphocytes (abs), incr [7, 12]: M incr 2.3x†;
monocytes (abs), incr [7, 12]: M incr 1.9x†;
All hematology results after the 14-day recovery period ([7]; only 100 mg/kg dose group evaluated): returned to within normal levels
